The values below are quoted from earlier work in patent US11253534B2, “Method of preventing COVID-19 infection” (priority 2020, dated 2022).

For the data set the following is noted: in vivo.

Consider `CCN(CCO)CCCC(C)Nc1ccnc2cc(Cl)ccc12` (stereo not shown) [hydroxychloroquine], for which the half-life entry is on record as “up to 32 days”.
